Consider ten molecules from ChEMBL document CHEMBL5465560, “Selectivity Literature for EUbOPEN Chemogenomic Library” (2024).

SMILES strings stand for the structures.

In test [1] the target is Protein arginine N-methyltransferase 6 (Homo sapiens, UniProt Q96LA8). The experiment in a line: Selectivity interaction (Scintillation proximity assays) EUB0000255b PRMT6.
Test [2] deals with Cyclin-dependent kinase 2/cyclin E (Homo sapiens, UniProt P24941). The experiment in a line: Selectivity interaction (Enzyme panel (AstraZeneca, AlphaScreen, functional assay)) EUB0000621a CDK2. The class given is protein-complex assay. On the technique in general: Alpha assays give light when donor and acceptor beads are brought close together.
In another test the target is Aurora kinase B (Homo sapiens, UniProt Q96GD4). The experiment in a line: Selectivity interaction (ActivX KiNativ screen (kinase selectivity in THP-1 cell lysates)) EUB0000639a AURKB. The class given is subcellular. Particulars: lysate, at 0.01 µM.
Test [3] addresses Calcium/calmodulin-dependent protein kinase type II subunit delta (Homo sapiens) (UniProt Q13557). Put plainly: Selectivity interaction (ActivX KiNativ screen (kinase selectivity in THP-1 cell lysates)) EUB0000639a CAMK2D. The class given is subcellular. The settings on record: lysate, at 0.04 µM.
Test [4] deals with T1, Dual specificity mitogen-activated protein kinase kinase 3 (Homo sapiens) (UniProt P46734).
T1 sequence (whole entry): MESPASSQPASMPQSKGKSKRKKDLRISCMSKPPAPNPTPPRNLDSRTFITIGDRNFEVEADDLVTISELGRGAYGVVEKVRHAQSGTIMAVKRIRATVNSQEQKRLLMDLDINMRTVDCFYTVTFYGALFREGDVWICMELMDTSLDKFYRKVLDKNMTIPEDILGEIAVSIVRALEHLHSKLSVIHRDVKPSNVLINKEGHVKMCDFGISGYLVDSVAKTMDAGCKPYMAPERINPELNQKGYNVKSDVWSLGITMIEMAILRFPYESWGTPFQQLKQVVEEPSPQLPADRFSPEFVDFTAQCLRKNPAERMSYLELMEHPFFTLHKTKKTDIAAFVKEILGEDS
Put plainly: Selectivity interaction (ActivX KiNativ screen (kinase selectivity in THP-1 cell lysates)) EUB0000639a MAP2K3. The class given is subcellular. The settings on record: lysate, at 1 µM.

The target in test [5] is Platelet-derived growth factor receptor alpha (Homo sapiens, UniProt P16234). Put plainly: Selectivity interaction (Kinase panel (Invitrogen)) EUB0000639a PDGFRA. The settings on record: at 200 nM.
Test [6] concerns the target Cyclin-dependent kinase 2 (Homo sapiens, UniProt P24941). Put plainly: Selectivity interaction (Kinase panel (DSF assay)) EUB0001559a CDK2. Background: In DSF a fluorescence change marks the thermal transition of the protein.
Test [7] has as its target SRSF protein kinase 2 (Homo sapiens) (UniProt P78362). Put plainly: Selectivity interaction (KinomeScan (DiscoverX)) EUB0000045b SRPK2.
Test [8] addresses High affinity nerve growth factor receptor (Homo sapiens, UniProt P04629). The experiment in a line: Selectivity interaction (Ambit KINOMEscan and KiNATiv profiling in Jurkat cells) EUB0000090b NTRK1. The settings on record: at 1 µM. In kind it is cell-based.
In test [9] the target is T2, Inhibitor of nuclear factor kappa-B kinase subunit beta (Homo sapiens) (UniProt O14920).
T2 sequence (whole entry): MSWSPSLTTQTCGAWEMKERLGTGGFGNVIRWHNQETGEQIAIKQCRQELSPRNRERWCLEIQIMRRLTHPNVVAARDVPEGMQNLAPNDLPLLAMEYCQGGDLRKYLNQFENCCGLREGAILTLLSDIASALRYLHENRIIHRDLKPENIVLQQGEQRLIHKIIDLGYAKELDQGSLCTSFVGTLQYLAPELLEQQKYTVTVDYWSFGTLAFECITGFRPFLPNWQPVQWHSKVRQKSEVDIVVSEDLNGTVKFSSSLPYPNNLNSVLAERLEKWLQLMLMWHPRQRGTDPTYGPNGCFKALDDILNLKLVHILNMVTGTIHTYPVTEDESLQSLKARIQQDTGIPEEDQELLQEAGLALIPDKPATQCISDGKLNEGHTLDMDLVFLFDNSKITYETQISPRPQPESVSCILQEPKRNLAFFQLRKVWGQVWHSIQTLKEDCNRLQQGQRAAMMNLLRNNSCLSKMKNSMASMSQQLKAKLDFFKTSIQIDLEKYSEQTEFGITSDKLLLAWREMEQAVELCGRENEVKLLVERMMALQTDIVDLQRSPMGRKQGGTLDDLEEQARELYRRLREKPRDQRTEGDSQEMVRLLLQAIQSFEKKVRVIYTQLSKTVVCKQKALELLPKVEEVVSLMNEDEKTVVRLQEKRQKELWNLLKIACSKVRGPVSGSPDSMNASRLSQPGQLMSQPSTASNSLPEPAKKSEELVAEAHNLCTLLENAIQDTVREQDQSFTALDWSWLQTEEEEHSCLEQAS
Put plainly: Selectivity interaction (KinomeScan (DiscoverX)) EUB0001049a IKBKB. Particulars: at 1 µM.

The target of test [10] is T3, Ephrin type-B receptor 3 (Homo sapiens) (UniProt P54753).
T3 sequence (whole entry): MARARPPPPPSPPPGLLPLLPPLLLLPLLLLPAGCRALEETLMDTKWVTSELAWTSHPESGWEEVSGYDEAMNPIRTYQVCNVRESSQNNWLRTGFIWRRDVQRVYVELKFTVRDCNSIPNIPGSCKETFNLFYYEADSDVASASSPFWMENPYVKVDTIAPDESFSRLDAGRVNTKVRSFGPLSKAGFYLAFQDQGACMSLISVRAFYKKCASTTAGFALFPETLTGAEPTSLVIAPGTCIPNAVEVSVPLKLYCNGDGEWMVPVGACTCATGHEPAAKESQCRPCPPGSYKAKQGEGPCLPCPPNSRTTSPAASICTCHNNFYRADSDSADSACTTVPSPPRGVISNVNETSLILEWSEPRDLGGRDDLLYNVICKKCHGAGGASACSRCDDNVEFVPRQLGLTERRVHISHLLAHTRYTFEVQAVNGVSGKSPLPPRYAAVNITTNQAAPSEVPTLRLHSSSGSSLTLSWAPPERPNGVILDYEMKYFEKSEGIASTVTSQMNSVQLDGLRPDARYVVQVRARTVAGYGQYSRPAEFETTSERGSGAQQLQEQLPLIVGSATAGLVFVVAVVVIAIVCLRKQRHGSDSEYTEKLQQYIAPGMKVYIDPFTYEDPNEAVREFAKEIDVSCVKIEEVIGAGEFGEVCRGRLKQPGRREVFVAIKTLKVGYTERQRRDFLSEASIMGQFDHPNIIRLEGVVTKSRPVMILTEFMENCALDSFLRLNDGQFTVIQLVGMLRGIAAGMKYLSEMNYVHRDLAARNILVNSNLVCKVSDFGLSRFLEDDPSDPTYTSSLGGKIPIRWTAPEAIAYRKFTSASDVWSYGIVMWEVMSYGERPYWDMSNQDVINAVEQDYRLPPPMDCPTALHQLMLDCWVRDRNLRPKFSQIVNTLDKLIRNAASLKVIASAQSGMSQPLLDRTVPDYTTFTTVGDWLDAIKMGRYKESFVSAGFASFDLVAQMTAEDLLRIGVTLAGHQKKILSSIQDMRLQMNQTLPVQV
Put plainly: Selectivity interaction (KinomeScan (DiscoverX)) EUB0000655a EPHB3. The settings on record: at 10 µM.

The target of test [11] is Ribosomal protein S6 kinase alpha-4 (Homo sapiens) (UniProt O75676). The experiment in a line: Selectivity interaction (KinomeScan (DiscoverX)) EUB0000618a RPS6KA4. The settings on record: at 10 µM.
The target in test [12] is Casein kinase I isoform delta (Homo sapiens, UniProt P48730). Put plainly: Selectivity interaction (Kinase panel (DSF assay)) EUB0001558a CSNK1D.
Sequence of Casein kinase I isoform delta (P48730 whole entry, looked up, canonical isoform): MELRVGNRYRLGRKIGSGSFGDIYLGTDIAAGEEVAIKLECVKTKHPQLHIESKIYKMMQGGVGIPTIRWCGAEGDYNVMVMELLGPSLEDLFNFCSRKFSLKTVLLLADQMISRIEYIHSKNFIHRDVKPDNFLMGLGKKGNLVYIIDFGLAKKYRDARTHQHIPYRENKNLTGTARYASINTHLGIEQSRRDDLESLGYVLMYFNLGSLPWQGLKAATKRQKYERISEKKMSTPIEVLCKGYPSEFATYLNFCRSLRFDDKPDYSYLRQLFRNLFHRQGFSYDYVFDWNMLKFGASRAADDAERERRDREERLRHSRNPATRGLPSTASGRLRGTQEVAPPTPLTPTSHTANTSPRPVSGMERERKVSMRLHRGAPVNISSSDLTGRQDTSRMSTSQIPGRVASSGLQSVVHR

Sequence of SRSF protein kinase 2 (Homo sapiens) (P78362 whole entry, looked up): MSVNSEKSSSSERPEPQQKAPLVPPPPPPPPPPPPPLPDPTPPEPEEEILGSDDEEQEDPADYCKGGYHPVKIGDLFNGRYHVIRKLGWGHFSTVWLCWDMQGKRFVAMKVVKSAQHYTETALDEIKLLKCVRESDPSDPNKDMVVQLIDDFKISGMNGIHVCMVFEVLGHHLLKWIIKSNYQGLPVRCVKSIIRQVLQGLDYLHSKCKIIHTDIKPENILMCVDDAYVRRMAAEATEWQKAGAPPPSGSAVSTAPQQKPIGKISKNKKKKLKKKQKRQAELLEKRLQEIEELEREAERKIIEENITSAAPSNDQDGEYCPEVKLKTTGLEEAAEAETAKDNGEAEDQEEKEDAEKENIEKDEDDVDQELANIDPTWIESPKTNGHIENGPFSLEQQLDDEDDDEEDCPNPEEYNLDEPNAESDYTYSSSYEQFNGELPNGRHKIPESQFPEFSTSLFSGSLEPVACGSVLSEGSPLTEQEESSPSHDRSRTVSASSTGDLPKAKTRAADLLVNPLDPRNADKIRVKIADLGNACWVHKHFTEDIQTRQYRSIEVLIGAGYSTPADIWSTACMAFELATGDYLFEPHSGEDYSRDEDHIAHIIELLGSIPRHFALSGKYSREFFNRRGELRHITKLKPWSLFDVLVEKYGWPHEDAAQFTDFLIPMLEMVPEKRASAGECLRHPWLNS
Sequence of Calcium/calmodulin-dependent protein kinase type II subunit delta (Homo sapiens) (Q13557 whole entry): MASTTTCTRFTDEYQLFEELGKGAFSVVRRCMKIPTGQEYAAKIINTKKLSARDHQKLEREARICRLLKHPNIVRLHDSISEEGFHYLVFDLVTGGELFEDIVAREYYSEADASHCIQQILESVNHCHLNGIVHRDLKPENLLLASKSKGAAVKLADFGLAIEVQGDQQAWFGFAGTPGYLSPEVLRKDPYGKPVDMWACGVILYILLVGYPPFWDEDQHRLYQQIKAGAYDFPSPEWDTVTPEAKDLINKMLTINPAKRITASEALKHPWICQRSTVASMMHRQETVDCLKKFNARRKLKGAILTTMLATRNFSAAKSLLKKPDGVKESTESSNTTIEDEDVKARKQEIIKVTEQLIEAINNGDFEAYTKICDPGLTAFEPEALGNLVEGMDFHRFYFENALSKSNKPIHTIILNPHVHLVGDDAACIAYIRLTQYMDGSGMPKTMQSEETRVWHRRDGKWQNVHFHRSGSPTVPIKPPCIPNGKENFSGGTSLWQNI
Sequence of Aurora kinase B (Q96GD4 whole entry): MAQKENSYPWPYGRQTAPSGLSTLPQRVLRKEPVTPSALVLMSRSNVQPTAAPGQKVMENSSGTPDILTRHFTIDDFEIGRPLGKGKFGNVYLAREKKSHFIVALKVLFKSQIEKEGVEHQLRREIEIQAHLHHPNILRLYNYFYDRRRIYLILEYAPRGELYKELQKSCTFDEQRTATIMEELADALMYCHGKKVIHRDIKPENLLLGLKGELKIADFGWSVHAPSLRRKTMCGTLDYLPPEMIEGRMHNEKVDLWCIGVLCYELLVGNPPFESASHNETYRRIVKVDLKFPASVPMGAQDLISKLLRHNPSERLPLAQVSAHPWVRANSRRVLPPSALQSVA
Sequence of Protein arginine N-methyltransferase 6 (Q96LA8 whole entry): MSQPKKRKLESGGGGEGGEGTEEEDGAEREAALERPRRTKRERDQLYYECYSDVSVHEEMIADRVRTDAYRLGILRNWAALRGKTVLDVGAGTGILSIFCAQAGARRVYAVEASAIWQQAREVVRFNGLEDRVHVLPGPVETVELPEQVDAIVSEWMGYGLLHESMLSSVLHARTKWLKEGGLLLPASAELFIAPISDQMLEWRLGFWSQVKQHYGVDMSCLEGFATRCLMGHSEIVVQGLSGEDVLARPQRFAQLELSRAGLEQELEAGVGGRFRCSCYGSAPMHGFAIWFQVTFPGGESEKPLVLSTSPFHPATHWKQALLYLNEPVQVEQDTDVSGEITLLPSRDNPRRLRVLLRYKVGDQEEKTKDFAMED
Sequence of High affinity nerve growth factor receptor (P04629 33-796 limits assumed): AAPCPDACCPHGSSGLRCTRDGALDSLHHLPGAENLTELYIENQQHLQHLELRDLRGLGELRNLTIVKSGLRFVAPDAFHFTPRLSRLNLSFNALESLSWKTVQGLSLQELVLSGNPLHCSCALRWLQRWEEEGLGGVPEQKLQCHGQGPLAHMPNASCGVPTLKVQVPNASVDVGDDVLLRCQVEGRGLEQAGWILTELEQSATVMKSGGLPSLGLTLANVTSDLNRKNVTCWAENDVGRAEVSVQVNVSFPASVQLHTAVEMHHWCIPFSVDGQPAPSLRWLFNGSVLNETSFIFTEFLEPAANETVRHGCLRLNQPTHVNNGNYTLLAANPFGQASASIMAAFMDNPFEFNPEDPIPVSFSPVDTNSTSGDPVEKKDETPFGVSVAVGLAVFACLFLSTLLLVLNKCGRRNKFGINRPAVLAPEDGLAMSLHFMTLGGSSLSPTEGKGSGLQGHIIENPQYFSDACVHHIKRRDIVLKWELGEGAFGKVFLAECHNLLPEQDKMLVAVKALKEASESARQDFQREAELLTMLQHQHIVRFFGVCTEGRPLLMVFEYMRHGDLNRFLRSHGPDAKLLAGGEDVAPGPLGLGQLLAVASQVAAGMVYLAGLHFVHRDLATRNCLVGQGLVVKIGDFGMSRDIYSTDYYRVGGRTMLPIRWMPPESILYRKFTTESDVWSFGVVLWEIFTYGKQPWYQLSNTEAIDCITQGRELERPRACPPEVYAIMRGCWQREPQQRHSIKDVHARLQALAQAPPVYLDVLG
Sequence of Platelet-derived growth factor receptor alpha (P16234 whole entry): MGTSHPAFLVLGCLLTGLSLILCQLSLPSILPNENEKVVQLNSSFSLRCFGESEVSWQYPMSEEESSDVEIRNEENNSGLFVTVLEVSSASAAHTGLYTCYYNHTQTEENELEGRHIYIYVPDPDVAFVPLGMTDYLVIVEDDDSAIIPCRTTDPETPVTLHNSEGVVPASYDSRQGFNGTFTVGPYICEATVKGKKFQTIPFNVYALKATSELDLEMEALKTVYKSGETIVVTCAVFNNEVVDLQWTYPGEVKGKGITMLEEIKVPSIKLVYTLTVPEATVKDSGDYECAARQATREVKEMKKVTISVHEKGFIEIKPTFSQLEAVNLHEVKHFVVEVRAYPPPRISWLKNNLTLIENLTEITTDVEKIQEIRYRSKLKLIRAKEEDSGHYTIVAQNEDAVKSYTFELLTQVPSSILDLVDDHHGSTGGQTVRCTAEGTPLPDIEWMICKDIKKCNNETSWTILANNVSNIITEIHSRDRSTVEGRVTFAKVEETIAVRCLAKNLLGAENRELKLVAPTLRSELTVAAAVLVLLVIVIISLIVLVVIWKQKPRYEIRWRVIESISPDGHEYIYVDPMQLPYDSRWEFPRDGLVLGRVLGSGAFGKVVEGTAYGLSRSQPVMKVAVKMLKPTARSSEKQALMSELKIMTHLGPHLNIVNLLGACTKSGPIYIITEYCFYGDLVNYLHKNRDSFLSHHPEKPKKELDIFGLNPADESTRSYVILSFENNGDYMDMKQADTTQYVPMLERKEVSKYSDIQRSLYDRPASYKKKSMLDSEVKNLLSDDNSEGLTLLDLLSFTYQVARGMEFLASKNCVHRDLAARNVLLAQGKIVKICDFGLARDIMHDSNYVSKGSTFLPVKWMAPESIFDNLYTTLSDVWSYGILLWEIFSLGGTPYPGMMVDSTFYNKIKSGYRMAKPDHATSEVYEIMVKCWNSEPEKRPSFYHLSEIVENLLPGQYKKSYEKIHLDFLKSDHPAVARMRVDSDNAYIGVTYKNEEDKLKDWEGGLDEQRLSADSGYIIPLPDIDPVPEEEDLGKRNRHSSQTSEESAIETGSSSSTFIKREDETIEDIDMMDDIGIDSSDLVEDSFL
Sequence of Ribosomal protein S6 kinase alpha-4 (Homo sapiens) (O75676 whole entry, looked up, canonical isoform): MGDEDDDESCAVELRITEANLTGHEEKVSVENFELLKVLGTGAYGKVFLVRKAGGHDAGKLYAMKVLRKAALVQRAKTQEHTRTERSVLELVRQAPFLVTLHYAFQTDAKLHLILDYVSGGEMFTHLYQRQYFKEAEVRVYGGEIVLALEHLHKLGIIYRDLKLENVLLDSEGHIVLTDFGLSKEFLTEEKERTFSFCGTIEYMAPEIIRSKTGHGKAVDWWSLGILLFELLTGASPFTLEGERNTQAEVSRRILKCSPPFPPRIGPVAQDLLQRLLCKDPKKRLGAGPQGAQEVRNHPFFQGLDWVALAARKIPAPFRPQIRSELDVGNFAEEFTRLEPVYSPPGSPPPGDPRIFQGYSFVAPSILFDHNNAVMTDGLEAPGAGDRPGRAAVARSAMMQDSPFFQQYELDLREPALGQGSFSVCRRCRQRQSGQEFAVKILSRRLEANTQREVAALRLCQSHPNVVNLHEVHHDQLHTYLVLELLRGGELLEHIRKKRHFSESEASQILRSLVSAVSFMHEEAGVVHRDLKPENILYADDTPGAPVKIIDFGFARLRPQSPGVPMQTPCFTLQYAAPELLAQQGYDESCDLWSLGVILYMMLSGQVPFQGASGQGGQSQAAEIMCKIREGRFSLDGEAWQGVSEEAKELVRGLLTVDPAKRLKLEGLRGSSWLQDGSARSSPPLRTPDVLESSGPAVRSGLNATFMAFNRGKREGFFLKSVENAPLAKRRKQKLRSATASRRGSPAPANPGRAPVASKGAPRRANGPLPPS

Usually IC50 stands for the midpoint of a concentration-inhibition curve. Consider `COCCN1CCC(c2cc(CN(C)C(=O)c3cccc(Oc4ccccc4)c3)ccn2)CC1`, for which the IC50 in test [1] was greater than 10 µM.

In test [2], `Cc1cc([C@@H](C)Nc2ccccc2C(=O)O)c2nc(N3CCOCC3)cc(=O)n2c1` [AZD-6482] yielded an IC50 greater than 1000 µM.

On to `CC[C@@H]1[C@H](F)C(=O)N[C@@H]1COc1nccc2cc(C(N)=O)c(OC)cc12` [ZIMLOVISERTIB], for which the % of inhibition on Aurora kinase B was 4.9%; in test [3] it was 16.7%; in test [4], -152%; in test [5], -1.69%.

Consider `CN(C(=O)c1cnn2cccnc12)c1cc2c(cc1N1CCOCC1)C(=O)N(C[C@@H](F)C(C)(C)O)C2`, for which the dTM in test [6] is -0.3 K.

On to `C=CC(=O)Nc1cc(-n2c(=O)ccc3cnc4ccc(-c5ccc(NS(C)(=O)=O)cc5)cc4c32)ccc1C`, for which the % of control in test [7] (at 1 µM) is 100%; in [7] (at 10 µM), 81%.

`CN(C)C/C=C/C(=O)Nc1ccc(C(=O)N2CCCC(Nc3ncc(Cl)c(-c4c[nH]c5ccccc45)n3)C2)cc1` (centres undefined): the % of control in test [8] worked out at 78%.

In [9], `COc1cc(Nc2nc(C)cc(-c3cnn4nc(OC)ccc34)n2)cc(C(F)(F)F)c1` registered a % of control of 81%.

`CN(C)CCOc1ccc(-c2nc(-c3ccncc3)c(-c3ccc4c(c3)CC/C4=N\O)[nH]2)cc1`: the % of control in [10] is 100%.

As for `O[C@H]1CC[C@H](Nc2ncc3nc(Nc4c(F)cc(F)cc4F)n([C@H]4CCOC4)c3n2)CC1`, the % of control in test [11] was 100%.

In turn, `CC(C)(O)[C@H](F)CN1Cc2cc(NC(=O)c3cnn4cccnc34)c(N3CCOCC3)cc2C1=O` showed a dTM in test [12] of 1.9 K.
